The record followed here is PubChem BioAssay AID1752 (Sanford-Burnham Center for Chemical Genomics, 2009).

“And” between values parts separate entries of the source, which are not always exact repeats. Identical values can stand only once. The source made the active and inactive calls. How the calls were made is not given here.

This test deals with PPC-1 cells, TRAIL-induced apoptosis potentiation. As to the kind of experiment: TRAIL sensitization of PPC-1 cells, potency – analog series, SAR follow-up (AID 1752).
Broadly, the IC50 is the concentration that gives 50% inhibition. Take `CSc1nc(-c2ccccc2)nc(-c2ccccc2)n1`: the IC50 is > 10 µM (inactive).

For `CC(Sc1nc(-c2ccccc2)cc(C(F)(F)F)n1)C(=O)N1CCCC1` (stereo not drawn), the IC50 was > 10 µM (inactive).

Turning to `CCSc1nc(-c2ccccc2)cc(=O)[nH]1`, the IC50 was > 10 µM (inactive).

Regarding `COc1cc(-c2ccccc2)[nH]c(=S)n1`, the IC50 was > 10 µM (inactive).

Regarding `CSc1nc(-c2ccccc2)nc(-c2ccccc2OC(C)=O)n1`, the IC50 was > 10 µM (inactive).

Turning to `CCSc1cc(N2CCCC2)nc(-c2ccc(Cl)cc2)n1`, the IC50 is > 10 µM (inactive).

As to `CSc1nc(-c2ccccc2)nc(C(C)C)n1`, the IC50 was > 10 µM (inactive).

Consider `CSc1nc(-c2ccc(C)cc2)nc(C(Cl)Cl)n1`, for which the IC50 is 0.372 µM and 0.602 µM.
